Experimental data: US20080255206A1, “Rxr Agonists and Antagonists, Alone or in Combination with Ppar Ligands, in the Treatment of Metabolic and Cardiovascular Diseases” (priority 2005, published 2008)

What was measured:
[1] = test system: skin inflammation induced by topical 9-cis RA; test: Preventive and therapeutic effect on 9-cis RA-induced skin inflammation, human volunteer study; format: in vivo
Method: In this pilot clinical trial on one healthy volunteer, the substance 9-cis RA and compound 15 are administered epicutaneously. The inflammation-inducing agent 9-cis RA is used in a concentration of 0.3%. The RXR antagonist compound 15 is applied in a concentration of 1%. The compounds are solved in ethanol/propylene glycol (1:1) and administered twice daily. The site of application is the abdominal skin, with various areas of 3×3=9 cm^2. Volume per application is 0.1 ml.
The following three clinical settings at different sites are chosen: • 1. Induction of skin inflammation by 9-cis RA 9-cis RA is administered as a 0.3% solution twice daily from day 1 to day 14. The vehicle is administered from day 15 to disappearance of skin inflammation. • 2. Prevention of 9-cis RA-induced skin inflammation by RXR antagonist Compound 15 9-cis RA solution of 0.3% is administered twice daily from day 1 to day 14, each time followed subsequently by application of compound 15 as a 1% solution. • 3. Therapy of 9-cis RA-induced skin inflammation by RXR antagonist compound 15 9-cis RA solution of 0.3% is administered twice daily from day 1 to day 14. Compound 15 as a 1% solution is administered from day 15 until disappearance of skin inflammation.
The signs and symptoms of skin inflammation are recorded on a 0-4 scale, as described in example 21. The evaluation of the anti-inflammatory effect is based on the daily determination of the inflammation score (scale 0-4).
The following parameters serve as criteria for evaluation of the effect of 9-cis RA, the preventive effect of compound 15 and the therapeutic effect of compound 15. • 1. Sum of the daily inflammation scores from day 1 to day 28. Total inflammation score. • 2. Sum of the daily inflammation scores from day 15 to disappearance of skin inflammation. • 3. Time in days from day 15 to disappearance of skin inflammation.

[2] = test system: skin of mice; test: Topical administration to the skin of mice (irritation); format: in vivo; details: concentrations up to 2.5%
[3] = test system: synovial fibroblasts; test: In vitro cartilage degradation by synovial fibroblasts (sGAG release); format: cell-based, human; details: for sGAG release: 14 days
Method: Furthermore, it is determined whether this is accompanied by a modulation in the accumulation of the mRNA encoding catabolic enzyme matrix metalloproteinase-1 (MMP-1), responsible for degradation of human cartilage and consequently joint destruction in man. Adherent synovial fluid cells taken from a patient with RA are used after 5 passages in an in vitro assay for cartilage destruction. The cells incubated in flasks coated with 0.1% (0.1 g/100 ml) human cartilage powder are fixed using Matrigel® (BD Biosciences, Becton, Dickinson & Co., Boston, Mass., USA). The release of sulphated glycosaminoglycan (sGAG) into the culture medium is monitored by a commercial colorimetric test according to a method described by S. Björnsson, see Anal. […] This is conducted in the presence or absence of IL-1β (100 pg/ml).

[4] = test system: db/db mice; test: Investigation with db/db mice (blood glucose and lipids); format: in vivo, mouse; details: for Glucose Diff. D o − D 12 / HDL-cholesterol Diff. D o − D 12 / Total cholesterol Diff. D o − D 12 / Triglycerides Diff. D o − D 12: change day 0 to day 12; for Glucose D o / HDL-cholesterol D o / Total cholesterol D o / Triglycerides D o: day 0; for Glucose D 12 / HDL-cholesterol D 12 / Total cholesterol D 12 / Triglycerides D 12: day 12; for Glucose D-4 / HDL-cholesterol D-4 / Total cholesterol D-4 / Triglycerides D-4: day −4
Method: The following compounds are investigated and compared to placebo (vehicle control).
The mentioned 3 compounds are tested in db/db mice during a time when diabetes is in a rapid developing stage. […] Each dosage group and the vehicle group comprise 7 mice. The suspensions used are prepared with peroxide free arachis oil as vehicle. Blood samples are collected by retro-orbital bleeding at days −4, 0 and 12. The blood levels of glucose, triglycerides, total cholesterol, and HDL-cholesterol are determined.
For evaluation of efficacy, the difference between the values of glucose, triglycerides, total cholesterol and HDL-cholesterol changing from day 0 to day 12 is determined and expressed in %. […] Overall evaluation consists in determining the efficacy of the compounds by calculating the whole extent of the effect expressed in %. […] This value is considered as a valuable indicator for the efficacy of the investigated compounds administered in a tolerated dose.

[5] = Prevention: 9-cis RA 0.3% and compound 15 1%, both day 1 to day 14
[6] = Therapy: 9-cis RA 0.3% day 1 to day 14, compound 15 1% day 15 to disappearance of inflammation
[7] = 30 mg/kg/day group versus vehicle group

## CCCCOc1c(\C(C)=C/C=C/C(C)=C/C(=O)O)cc(C(C)(C)C)cc1C(C)(C)C [Compound 15, (2E,4E,6Z)-7-[2-butoxy-3,5-bis(1,1-dimethylethyl)phenyl]-3-methyl-2,4,6-octatrienoic acid]
[1]; [5]
  Sum of daily inflammation scores from day 15 to disappearance of inflammation: 5
  Sum of daily inflammation scores, day 1 to day 28. Total inflammation score: 11
  Time in days from day 15 to disappearance of inflammation: 6 days
[1]; [6]
  Sum of daily inflammation scores from day 15 to disappearance of inflammation: 5
  Sum of daily inflammation scores, day 1 to day 28. Total inflammation score: 9
  Time in days from day 15 to disappearance of inflammation: 6 days
[2]
  Irritation or inflammation of the skin: does not lead to irritation or inflammation of the skin
[3]; absence of IL-1β
  Effect on cartilage destruction in vitro (in words): no effect on the basal activity of synovial fibroblast
[3]; absence of IL-1β, 10^−7 M
  sGAG release: 39 µg/mL
[3]; absence of IL-1β, 10^−8 M
  sGAG release: 57 µg/mL
[3]; absence of IL-1β, 10^−8 M, day 7
  Cumulative sGAG: 44 µg/mL
[3]; absence of IL-1β, 10^−8 M, day 14
  Cumulative sGAG: 57 µg/mL
[3]; absence of IL-1β, 10^−8 M, day 21
  Cumulative sGAG: 57 µg/mL
[3]; absence of IL-1β, 10^−8 M, day 28
  Cumulative sGAG: 39 µg/mL
[3]; absence of IL-1β, 10^−8 M, day 35
  Cumulative sGAG: 34 µg/mL
[3]; absence of IL-1β, 10^−9 M
  sGAG release: 46 µg/mL
[3]; presence of 100 pg/ml IL-1β, 10^−7 M
  sGAG release: 41 µg/mL
[3]; presence of 100 pg/ml IL-1β, 10^−8 M
  sGAG release: 89 µg/mL
[3]; presence of 100 pg/ml IL-1β, 10^−8 M, day 7
  Cumulative sGAG: 67 µg/mL
[3]; presence of 100 pg/ml IL-1β, 10^−8 M, day 14
  Cumulative sGAG: 89 µg/mL
[3]; presence of 100 pg/ml IL-1β, 10^−8 M, day 21
  Cumulative sGAG: 89 µg/mL
[3]; presence of 100 pg/ml IL-1β, 10^−8 M, day 28
  Cumulative sGAG: 173 µg/mL
[3]; presence of 100 pg/ml IL-1β, 10^−8 M, day 35
  Cumulative sGAG: 56 µg/mL
[3]; presence of 100 pg/ml IL-1β, 10^−9 M
  sGAG release: 144 µg/mL
[3]; presence of IL-1β
  Effect on cartilage destruction in vitro (in words): markedly inhibits the IL-1β dependent cartilage destruction
[4]; 0.3 mg/kg/day i.p.
  Glucose Diff. D o − D 12: +20.8%
  HDL-cholesterol Diff. D o − D 12: −5.0%
  Total cholesterol Diff. D o − D 12: −5.7%
  Triglycerides Diff. D o − D 12: −0.6%
  Glucose D o: 226 mg/dL
  HDL-cholesterol D o: 3.00 mmol/L
  Total cholesterol D o: 4.05 mmol/L
  Triglycerides D o: 1.78 mmol/L
  Glucose D 12: 273 mg/dL
  HDL-cholesterol D 12: 2.85 mmol/L
  Total cholesterol D 12: 3.82 mmol/L
  Triglycerides D 12: 1.77 mmol/L
  Glucose D-4: 153 mg/dL
  HDL-cholesterol D-4: 2.43 mmol/L
  Total cholesterol D-4: 4.52 mmol/L
  Triglycerides D-4: 2.28 mmol/L
[4]; 3 mg/kg/day
  Glucose levels (in words): markedly lowers glucose levels
  HDL-cholesterol levels (in words): markedly raised
  Triglyceride levels (in words): markedly decreasing
[4]; 3.0 mg/kg/day i.p.
  Glucose Diff. D o − D 12: +4.1%
  HDL-cholesterol Diff. D o − D 12: +18.4%
  Total cholesterol Diff. D o − D 12: −11.1%
  Triglycerides Diff. D o − D 12: −44.9%
  Glucose D o: 270 mg/dL
  HDL-cholesterol D o: 2.88 mmol/L
  Total cholesterol D o: 3.95 mmol/L
  Triglycerides D o: 2.16 mmol/L
  Glucose D 12: 281 mg/dL
  HDL-cholesterol D 12: 3.41 mmol/L
  Total cholesterol D 12: 4.39 mmol/L
  Triglycerides D 12: 1.19 mmol/L
  Glucose D-4: 192 mg/dL
  HDL-cholesterol D-4: 2.47 mmol/L
  Total cholesterol D-4: 4.62 mmol/L
  Triglycerides D-4: 2.15 mmol/L
[4]; 30 mg/kg/day
  Glucose levels (in words): decrease markedly
  HDL-cholesterol levels (in words): markedly increased
  Total cholesterol levels (in words): slightly higher
  Triglyceride levels (in words): very strongly
[4]; [7]
  Overall extent of the effect on blood levels of Glucose: −58.0%
  Overall extent of the effect on blood levels of HDL-cholesterol: +14.2%
  Overall extent of the effect on blood levels of Total cholesterol: +14.9%
  Overall extent of the effect on blood levels of Triglycerides: −73.0%
[4]; 30 mg/kg/day i.p.
  Glucose Diff. D o − D 12: −8.8%
  HDL-cholesterol Diff. D o − D 12: +10.4%
  Total cholesterol Diff. D o − D 12: +6.1%
  Triglycerides Diff. D o − D 12: −50.9%
  Glucose D o: 294 mg/dL
  HDL-cholesterol D o: 3.07 mmol/L
  Total cholesterol D o: 4.27 mmol/L
  Triglycerides D o: 2.18 mmol/L
  Glucose D 12: 268 mg/dL
  HDL-cholesterol D 12: 3.39 mmol/L
  Total cholesterol D 12: 4.53 mmol/L
  Triglycerides D 12: 1.07 mmol/L
  Glucose D-4: 184 mg/dL
  HDL-cholesterol D-4: 2.45 mmol/L
  Total cholesterol D-4: 3.98 mmol/L
  Triglycerides D-4: 1.85 mmol/L
